Experimental findings from patent publication US6630310B1, “Assay for binding between carbohydrate and glycolipid” (Biopolymer Engineering Pharmaceutical, Inc., priority 1996, dated 2003) are described below.

The test can be described thus: Competition of ^3H-PGG-Glucan binding to lactosyl ceramide in reconstituted membranes (FIG. 14). The text has this: FIG. 14 is a graph of the comparison of underivatized, aqueous soluble β(1-3)-glucan and single helix competition of ^3H-underivatized, aqueous soluble β(1-3)-glucan binding in three assay formats. Underivatized, aqueous soluble β(1-3)-glucan or single helix glucan was used at designated concentrations to compete for ^3H-underivatized, aqueous soluble β(1-3)-glucan binding to lactosyl ceramide (LacCer) in a 96-well plate (triangles), or to lactosyl ceramide in reconstituted membranes (squares), or to human leukocyte membranes (circles). Open symbols represent underivatized, aqueous soluble β(1-3) glucan, and closed symbols represent single helix. Maximum competition was assigned at the highest concentration of underivatized, aqueous soluble β(1-3)-glucan used as competitor in each type of assay.
Membranes were prepared from the receptor-negative cell line, U937, and extracted with chloroform/methanol as described above. The upper and lower layers were combined after removal of the proteinaceous interphase and dried under a stream of argon with the sample to be assayed for binding (lactosyl ceramide or fractions from the purification). […]
The dried lipid/sample preparations were resuspended in HBSS (500 μL) by brief sonication, and centrifuged for 10 minutes at 12,000×g. […] Pellets were then dissolved in SOLVABLE™, scintillation fluid was added, and radioactivity was measured.

Regarding “underivatized, aqueous soluble β(1-3)-glucan [PGG-Glucan]”, the “competition for ^3H-underivatized, aqueous soluble β(1-3)-glucan binding to LacCer in the reconstitution assay (in words)” value is reported as “competes”.
